Where two headings read alike, the source gives them in different places.
Columns and labels:
MAO-A and MAO-B = conditions: literature; cited from earlier work
MAO [1] = experiment: Inhibition of MAO - In vitro (14C p-tyramine substrate, partially purified rat brain mitochondria); assay type: biochemical; conditions: tested as hydrochloride salt, read-out: IC50 (MAO inhibitory activity - In vitro)
Text: (A) The ability of a compound of Formula I or II to inhibit MAO can be determined in vitro by the method of A. Christmas et al, Br. J. Pharmacol. 45, 490 (1972) in partially purified mitochondria from rat brain using ^14 C p-tyramine as the substrate.

MAO [2] = experiment: Inhibition of MAO - In vivo: change in levels of endogenous MAO substrates and metabolites in mouse brain; design: species or system mice; conditions: 16 hr
Method: The ability of a compound of Formula I or II to inhibit MAO can be determined in vivo in mice according to the following procedure, wherein changes in concentration of the endogenous MAO substrates and the metabolites thereof are assayed.
Mice are given an intraperitoneal injection of the test compound and 2 hours or 16 hours later the animals are killed. The levels of dopamine, dihydroxyphenylacetic acid (DOPAC), 5-hydroxytryptamine (5-HT), and 5-hydroxyindole-3-acetic acid (5-HIAA) in brain homogenates are determined by the method of J. Wagner et al, J. Chromatog. 164, 41 (1979) and P. Bey et al, Br. J. Pharmac., 70, 571 (1980).

MAO [3] = experiment: Inhibition of MAO - Ex vivo, rat (14C p-tyramine substrate); assay type: in vivo; conditions: for % Inhibition of MAO - Brain: 18 hr; for % Inhibition of MAO - Duodenum / % Inhibition of MAO - Heart / % Inhibition of MAO - Liver: 2 hr
Method: The ability of a compound of Formula I or II to inhibit MAO can be determined ex vivo by the following procedure:
The test compound is administered intraperitoneally (ip), intravenously (iv), or orally (po) to rats or mice and the animals are killed at various times after treatment. […] MAO activity is determined in the homogenates using ^14 C p-tyramine, as the substrate. […] Selectivity can be determined by repeating the above-described test using either ^14 C 5-hydroxytryptamine (for MAO-A) or ^14 C phenethylamine (for MAO-B) as the substrate for determining the % inhibition

MAO-B versus MAO-A = experiment: Selectivity of MAO inhibitors - In vitro (14C 5-hydroxytryptamine for MAO-A, 14C phenethylamine for MAO-B); assay type: biochemical, rat; conditions: for Selectivity (ratio of inhibitory activity against MAO-B versus MAO-A): in vitro, rat brain mitochondria
Method: Mitochondria are prepared from rat brain by homogenation in phosphate buffer (0.1 M, pH 7.2) followed by differential centrifugation. The mitochondria are suspended in the same buffer, the test compound is added at the desired concentration, and the system is incubated. […] Christmas, et al, supra).
Selectivity is expressed as the ratio of the inhibitory activity against MAO-B versus the inhibitory activity against MAO-A.

[4] = tested on: heart rate response to p-tyramine; experiment: Cheese effect: potentiation of heart-rate response to p-tyramine in rats; conditions: rat; for Potentiation of heart-rate response to p-tyramine: dose 1.0 (iv)
Method: The following test procedure can be employed to assess the potential of a compound of Formula I or II for producing the "cheese effect":
Rats are administered an intravenous injection of the test compound at various dosage levels, and 30 minutes later the rats are challenged with several intravenous or intraduodenal dodes of p-tyramine. The heart rate response is measured.

SMILES: N[C@@H]1C[C@H]1c1ccccc1 (relative stereo) [tranyclcypromine]
- preferential inhibition of MAO-A or MAO-B (in words) (MAO-A and MAO-B): not preferential in their action upon MAO

SMILES: C=C(CN)c1cccc(O)c1 [2-(3-hydroxy)phenylallylamine, 2-(3'-Hydroxy)phenylallylamine]
- IC50 (MAO [1]): 0.25 µM

SMILES: C=C(CN)c1cccc(OC)c1 [2-(3-methoxy)phenylallylamine, 2-(3'-Methoxy)phenylallylamine]
- IC50 (MAO [1]): 10 µM

SMILES: NCC(=C(Br)Br)c1ccccc1 [2-phenyl-3,3-dibromoallylamine, 2-Phenyl-3,3-dibromoallylamine]
- IC50 (MAO [1]): 500 µM

SMILES: NCC(=C(F)F)c1ccccc1 [2-phenyl-3,3-difluoroallylamine, 2-Phenyl-3,3-difluoroallylamine]
- IC50 (MAO [1]): 10 µM

SMILES: NCC(=CBr)c1ccccc1 [2-phenyl-3-bromoallylamine, 2-Phenyl-3-bromoallylamine]
- IC50 (MAO [1]): 40 µM

SMILES: C=C(CN)c1ccccc1 [2-phenylallylamine, 2-Phenylallylamine]
- IC50 (MAO [1]): 400 µM

SMILES: COc1ccccc1/C(=C\F)CN [(E)-2-(2'-Methoxy)phenyl-3-fluoroallylamine]
- IC50 (MAO [1]): 2.5 µM

SMILES: COc1ccc(/C(=C\F)CN)cc1OC [(E)-2-(3',4'-Dimethoxy)phenyl-3-fluoroallylamine]
- % Change (compared to control) - 5-HIAA (MAO [2]; 10 mg/kg ip): -8%
- % Change (compared to control) - 5-HT (MAO [2]; 10 mg/kg ip): +31%
- % Change (compared to control) - DOPAC (MAO [2]; 10 mg/kg ip): -62%
- % Change (compared to control) - Dopamine (MAO [2]; 10 mg/kg ip): +18%
- % Change (compared to control) - 5-HIAA (MAO [2]; 50 mg/kg ip): -32%
- % Change (compared to control) - 5-HT (MAO [2]; 50 mg/kg ip): +122%
- % Change (compared to control) - DOPAC (MAO [2]; 50 mg/kg ip): -85%
- % Change (compared to control) - Dopamine (MAO [2]; 50 mg/kg ip): +22%
- % Inhibition of MAO - Brain (MAO [3]; 0.5 mg/kg po): 79%
- % Inhibition of MAO - Duodenum (MAO [3]; 1.0 mg/kg iv): 40%
- % Inhibition of MAO - Heart (MAO [3]; 1.0 mg/kg iv): 17%
- % Inhibition of MAO - Liver (MAO [3]; 1.0 mg/kg iv): 58%
- % Inhibition of MAO - Brain (MAO [3]; 10.0 mg/kg po): 93%
- selectivity for MAO-B as compared to MAO-A (in words) (MAO-B versus MAO-A): marked selectivity for MAO-B as compared to MAO-A
- Selectivity (ratio of inhibitory activity against MAO-B versus MAO-A) (MAO-B versus MAO-A): 1000
- selectivity for MAO-B as compared to MAO-A (in words) (MAO-B versus MAO-A; listed as (E)-2-(3',4'-dimethoxyphenyl)-3-fluoroallylamine): selective inhibitors of MAO-B
- IC50 (MAO [1]): 2.5 µM
- Potentiation of heart-rate response to p-tyramine ([4]; p-tyramine i.d.): 2.5 fold
- Potentiation of heart-rate response to p-tyramine ([4]; p-tyramine i.v.): 2.3 fold
- risk of producing the cheese effect (in words) ([4]; in vivo): significantly decreased risk

SMILES: COc1cccc(/C(=C\F)CN)c1 [(E)-2-(3'-Methoxy)phenyl-3-fluoroallylamine]
- % Inhibition of MAO - Duodenum (MAO [3]; 0.1 mg/kg iv): 90%
- % Inhibition of MAO - Heart (MAO [3]; 0.1 mg/kg iv): 98%
- % Inhibition of MAO - Liver (MAO [3]; 0.1 mg/kg iv): 70%
- Selectivity (ratio of inhibitory activity against MAO-B versus MAO-A) (MAO-B versus MAO-A): 4
- IC50 (MAO [1]): 0.005 µM

SMILES: NC/C(=C/F)c1cccc(O)c1 [(E)-2-(3'-hydroxy)phenyl-3-fluoroallylamine]
- IC50 (MAO [1]): 0.05 µM

SMILES: NC/C(=C/F)c1cccc(C(F)(F)F)c1 [(E)-2-(3'-trifluoromethyl)phenyl-3-fluoroallylamine]
- IC50 (MAO [1]): 0.007 µM
